Measurements as given in PubChem BioAssay (NCI).
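Five compound concentrations were applied to cells in 96-well plates for 48 hours; endpoints were derived by simple linear interpolation of the resulting dose-response curve. Definition used: TGI = concentration required for complete inhibition of growth.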

Columns and labels:
Assay in all cases: DTP human tumour cell line panel, 48 h
M14 melanoma = system: M14 melanoma
HL-60(TB) leukemia = system: HL-60(TB) leukemia
HOP-92 NSCLC = system: HOP-92 NSCLC
SW-620 colon = system: SW-620 colon
UACC-257 melanoma = system: UACC-257 melanoma
IGROV1 ovarian = system: IGROV1 ovarian
SNB-78 CNS = system: SNB-78 CNS
HCC-2998 colon = system: HCC-2998 colon
NCI-H23 lung = system: NCI-H23 lung
CAKI-1 renal = system: CAKI-1 renal
DLD-1 colon = system: DLD-1 colon
COLO 205 colon = system: COLO 205 colon
DMS 114 small cell lung = system: DMS 114 small cell lung
M19-MEL melanoma = system: M19-MEL melanoma
SK-MEL-5 melanoma = system: SK-MEL-5 melanoma
SNB-75 CNS = system: SNB-75 CNS
MALME-3M melanoma = system: MALME-3M melanoma
TK-10 renal = system: TK-10 renal
MOLT-4 leukemia = system: MOLT-4 leukemia
K-562 leukemia = system: K-562 leukemia
NCI-H460 lung = system: NCI-H460 lung
SNB-19 CNS = system: SNB-19 CNS
OVCAR-8 ovarian = system: OVCAR-8 ovarian
CCRF-CEM leukemia = system: CCRF-CEM leukemia
HCT-116 colon = system: HCT-116 colon
LXFL 529 NSCLC = system: LXFL 529 NSCLC
HT29 colon = system: HT29 colon
HOP-18 NSCLC = system: HOP-18 NSCLC
SK-MEL-28 melanoma = system: SK-MEL-28 melanoma
SK-OV-3 ovarian = system: SK-OV-3 ovarian
UO-31 renal = system: UO-31 renal
786-0 renal = system: 786-0 renal
KM20L2 colon = system: KM20L2 colon
LOX IMVI melanoma = system: LOX IMVI melanoma
SF-539 CNS = system: SF-539 CNS
U251 CNS = system: U251 CNS
SK-MEL-2 melanoma = system: SK-MEL-2 melanoma
RXF 393 renal = system: RXF 393 renal
KM12 colon = system: KM12 colon
OVCAR-4 ovarian = system: OVCAR-4 ovarian
A498 renal = system: A498 renal
NCI-H522 lung = system: NCI-H522 lung
DMS 273 small cell lung = system: DMS 273 small cell lung
NCI-H226 lung = system: NCI-H226 lung
OVCAR-3 ovarian = system: OVCAR-3 ovarian
EKVX NSCLC = system: EKVX NSCLC
ACHN renal = system: ACHN renal
SN12C renal = system: SN12C renal
HCT-15 colon = system: HCT-15 colon
OVCAR-5 ovarian = system: OVCAR-5 ovarian
HOP-62 NSCLC = system: HOP-62 NSCLC
SR leukemia = system: SR leukemia
A549 NSCLC = system: A549 NSCLC
RPMI-8226 leukemia = system: RPMI-8226 leukemia
UACC-62 melanoma = system: UACC-62 melanoma
SF-295 CNS = system: SF-295 CNS
SF-268 CNS = system: SF-268 CNS
RXF-631 renal = system: RXF-631 renal
XF 498 CNS = system: XF 498 CNS

O=C(CCN1CCN(c2ccccc2)CC1)N1CCc2c([nH]c3ccccc23)C1c1cccnc1 (stereo not given)
TGI (M14 melanoma): 31.2 µM | TGI (HL-60(TB) leukemia): 33.6 µM | TGI (HOP-92 NSCLC): 37.7 µM | TGI (SW-620 colon): 32.7 µM | TGI (UACC-257 melanoma): 31.5 µM | TGI (IGROV1 ovarian): > 100 µM | TGI (SNB-78 CNS): 37 µM | TGI (HCC-2998 colon): 36.1 µM | TGI (NCI-H23 lung): 57.7 µM | TGI (CAKI-1 renal): 33.5 µM | TGI (DLD-1 colon): 36.2 µM | TGI (COLO 205 colon): 26.7 µM | TGI (DMS 114 small cell lung): 27 µM | TGI (M19-MEL melanoma): 37.1 µM | TGI (SK-MEL-5 melanoma): 28.9 µM | TGI (SNB-75 CNS): 53.3 µM | TGI (MALME-3M melanoma): 39.2 µM | TGI (TK-10 renal): 18.8 µM | TGI (MOLT-4 leukemia): 51.1 µM | TGI (K-562 leukemia): 45 µM | TGI (NCI-H460 lung): 34.4 µM | TGI (SNB-19 CNS): 66.7 µM | TGI (OVCAR-8 ovarian): 30.4 µM | TGI (CCRF-CEM leukemia): 69.7 µM | TGI (HCT-116 colon): 28.1 µM | TGI (LXFL 529 NSCLC): 31.6 µM | TGI (HT29 colon): 29 µM | TGI (HOP-18 NSCLC): 36.1 µM | TGI (SK-MEL-28 melanoma): 29.1 µM | TGI (SK-OV-3 ovarian): 33.7 µM | TGI (UO-31 renal): 26.1 µM | TGI (786-0 renal): 29.5 µM | TGI (KM20L2 colon): 29.5 µM | TGI (LOX IMVI melanoma): 30.6 µM | TGI (SF-539 CNS): 35.4 µM | TGI (U251 CNS): 30 µM | TGI (SK-MEL-2 melanoma): 30.4 µM | TGI (RXF 393 renal): 61 µM | TGI (KM12 colon): 36.7 µM | TGI (OVCAR-4 ovarian): 33 µM | TGI (A498 renal): 37.7 µM | TGI (NCI-H522 lung): 30 µM | TGI (DMS 273 small cell lung): 32.3 µM | TGI (NCI-H226 lung): 71.9 µM | TGI (OVCAR-3 ovarian): 30.7 µM | TGI (EKVX NSCLC): 34.7 µM | TGI (ACHN renal): 40 µM | TGI (SN12C renal): 29.6 µM | TGI (HCT-15 colon): 30.9 µM | TGI (OVCAR-5 ovarian): 34.6 µM | TGI (HOP-62 NSCLC): 40.4 µM | TGI (SR leukemia): 59 µM | TGI (A549 NSCLC): 29.7 µM

C[C@]12CC/C(=N\O)C=C1CC[C@@H]1C2CC[C@@]2(C)C1CC[C@@H]2OC1CCCCO1 (stereo not given in full)
TGI (M14 melanoma): 35.3 µM | TGI (HOP-92 NSCLC): 31.9 µM | TGI (SW-620 colon): 32 µM | TGI (UACC-257 melanoma): 34.6 µM | TGI (IGROV1 ovarian): > 100 µM | TGI (SNB-78 CNS): 41.7 µM | TGI (HCC-2998 colon): 29.5 µM | TGI (NCI-H23 lung): 31.2 µM | TGI (CAKI-1 renal): > 10 µM | TGI (DLD-1 colon): > 100 µM | TGI (COLO 205 colon): 32.6 µM | TGI (DMS 114 small cell lung): 46.6 µM | TGI (M19-MEL melanoma): 35.1 µM | TGI (SK-MEL-5 melanoma): > 100 µM | TGI (SNB-75 CNS): 33.2 µM | TGI (MALME-3M melanoma): 41.4 µM | TGI (TK-10 renal): 42.2 µM | TGI (MOLT-4 leukemia): 29.9 µM | TGI (K-562 leukemia): 46.3 µM | TGI (NCI-H460 lung): 45.7 µM | TGI (SNB-19 CNS): 33.1 µM | TGI (OVCAR-8 ovarian): > 100 µM | TGI (HCT-116 colon): 43.8 µM | TGI (LXFL 529 NSCLC): 31.8 µM | TGI (HT29 colon): 28.8 µM | TGI (HOP-18 NSCLC): 30 µM | TGI (SK-MEL-28 melanoma): 42.4 µM | TGI (SK-OV-3 ovarian): 36.3 µM | TGI (UO-31 renal): 43.7 µM | TGI (786-0 renal): 33.3 µM | TGI (KM20L2 colon): 30.4 µM | TGI (LOX IMVI melanoma): 37.4 µM | TGI (SF-539 CNS): > 10 µM | TGI (U251 CNS): 32.4 µM | TGI (SK-MEL-2 melanoma): 30.4 µM | TGI (RPMI-8226 leukemia): 37.7 µM | TGI (RXF 393 renal): 50.5 µM | TGI (KM12 colon): 33.2 µM | TGI (OVCAR-4 ovarian): 31.9 µM | TGI (A498 renal): > 100 µM | TGI (NCI-H522 lung): 34.7 µM | TGI (UACC-62 melanoma): > 10 µM | TGI (SF-295 CNS): 35.8 µM | TGI (DMS 273 small cell lung): 32.6 µM | TGI (OVCAR-3 ovarian): 31.9 µM | TGI (EKVX NSCLC): 31.9 µM | TGI (ACHN renal): 30.3 µM | TGI (SN12C renal): > 10 µM | TGI (HCT-15 colon): 43.2 µM | TGI (OVCAR-5 ovarian): 29 µM | TGI (HOP-62 NSCLC): > 100 µM | TGI (A549 NSCLC): 53 µM | TGI (SF-268 CNS): 55.2 µM

O=C(c1ccccc1)C1OC12C(=O)Nc1c(Cl)cc(Cl)cc12 (stereo not given)
TGI (M14 melanoma): > 82.4 µM | TGI (RXF-631 renal): > 100 µM | TGI (HL-60(TB) leukemia): 36 µM | TGI (HOP-92 NSCLC): > 93.2 µM | TGI (SW-620 colon): 35.4 µM | TGI (UACC-257 melanoma): > 100 µM | TGI (IGROV1 ovarian): > 100 µM | TGI (SNB-78 CNS): 99.9 µM | TGI (HCC-2998 colon): > 100 µM | TGI (NCI-H23 lung): > 100 µM | TGI (CAKI-1 renal): > 78 µM | TGI (DLD-1 colon): 45.7 µM | TGI (COLO 205 colon): 41 µM | TGI (DMS 114 small cell lung): > 100 µM | TGI (M19-MEL melanoma): > 77.6 µM | TGI (SK-MEL-5 melanoma): > 100 µM | TGI (SNB-75 CNS): 29.5 µM | TGI (MALME-3M melanoma): > 100 µM | TGI (TK-10 renal): > 100 µM | TGI (MOLT-4 leukemia): 31 µM | TGI (K-562 leukemia): 46.1 µM | TGI (NCI-H460 lung): > 100 µM | TGI (SNB-19 CNS): > 100 µM | TGI (OVCAR-8 ovarian): 51.1 µM | TGI (CCRF-CEM leukemia): 27.2 µM | TGI (HCT-116 colon): > 71.9 µM | TGI (LXFL 529 NSCLC): > 53.9 µM | TGI (HT29 colon): > 100 µM | TGI (HOP-18 NSCLC): > 100 µM | TGI (SK-MEL-28 melanoma): > 100 µM | TGI (SK-OV-3 ovarian): > 100 µM | TGI (UO-31 renal): > 100 µM | TGI (786-0 renal): > 100 µM | TGI (KM20L2 colon): > 100 µM | TGI (LOX IMVI melanoma): > 61.7 µM | TGI (SF-539 CNS): > 100 µM | TGI (U251 CNS): > 100 µM | TGI (SK-MEL-2 melanoma): > 100 µM | TGI (RPMI-8226 leukemia): > 100 µM | TGI (RXF 393 renal): > 100 µM | TGI (KM12 colon): > 100 µM | TGI (OVCAR-4 ovarian): > 39.9 µM | TGI (XF 498 CNS): 65.1 µM | TGI (A498 renal): > 100 µM | TGI (NCI-H522 lung): 34.6 µM | TGI (UACC-62 melanoma): > 100 µM | TGI (SF-295 CNS): > 100 µM | TGI (DMS 273 small cell lung): 47.7 µM | TGI (NCI-H226 lung): > 100 µM | TGI (OVCAR-3 ovarian): > 100 µM | TGI (EKVX NSCLC): > 100 µM | TGI (ACHN renal): > 85.1 µM | TGI (SN12C renal): > 91.2 µM | TGI (HCT-15 colon): > 70 µM | TGI (OVCAR-5 ovarian): > 100 µM | TGI (HOP-62 NSCLC): > 100 µM | TGI (SR leukemia): 31.1 µM | TGI (A549 NSCLC): > 100 µM | TGI (SF-268 CNS): > 100 µM
